# pIC50: −log10 of the molar value.
# Test system: 699152-130-R-J1-PDC complex spheroid viability
# Assay: Anticancer human tumor 699152-130-R-J1-PDC patient-derived pancreatic carcinoma cell line growth inhibition [POLQ]
# Details: for pIC50: curve of first compound; for viability, T/C: stronger effect = lower value
# Method in brief: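 Patient-derived tumour cells were co-cultured with HUVEC and mesenchymal stem cells as multicellular spheroids at 37 °C. They were treated with POLQ inhibitors (novobiocin, ART-558, RP6685) alone or combined with other agents. Top concentrations were at or near clinical Cmax (otherwise 10 microM; SN-38 at 1 microM), decreasing in half-log steps.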
# [1] = second compound 0.0316 µM, first compound 0.0316 µM
# [2] = second compound 0.0316 µM, first compound 0.1 µM
# [3] = second compound 0.0316 µM, first compound 0.316 µM
# [4] = second compound 0.0316 µM, first compound 1 µM
# [5] = second compound 0.1 µM, first compound 0.0316 µM
# [6] = second compound 0.1 µM, first compound 0.1 µM
# [7] = second compound 0.1 µM, first compound 0.316 µM
# [8] = second compound 0.1 µM, first compound 1 µM
# [9] = second compound 0.316 µM, first compound 0.0316 µM
# [10] = second compound 0.316 µM, first compound 0.1 µM
# [11] = second compound 0.316 µM, first compound 0.316 µM
# [12] = second compound 0.316 µM, first compound 1 µM
# [13] = second compound 1 µM, first compound 0.0316 µM
# [14] = second compound 1 µM, first compound 0.1 µM
# [15] = second compound 1 µM, first compound 0.316 µM
# [16] = second compound 1 µM, first compound 1 µM
# [17] = second compound 3.16 µM, first compound 0.0316 µM
# [18] = second compound 3.16 µM, first compound 0.1 µM
# [19] = second compound 3.16 µM, first compound 0.316 µM
# [20] = second compound 3.16 µM, first compound 1 µM
# [21] = second compound 10 µM, first compound 0.0316 µM
# [22] = second compound 10 µM, first compound 0.1 µM
# [23] = second compound 10 µM, first compound 0.316 µM
# [24] = second compound 10 µM, first compound 1 µM
# 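Note: spheroids exposed to agents for 7 days before viability reading.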
# 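Throughout, for viability, T/C: percent of DMSO vehicle control viability so 100% = vehicle and 0% = no viable signal.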
smiles,measurement,setting,value
O=C(Nc1ccc(O)c(NS(=O)(=O)c2ccc(F)cc2)c1)c1ccc(-c2ccccc2)cc1 + Nc1ccc(C#CCN(C(=O)Cc2ncc(C(F)(F)F)cc2C(F)(F)F)c2ccc(F)cc2)nn1,pIC50,second compound 0.0316 µM,< 5.00
same,pIC50,second compound 0.1 µM,< 5.00
same,pIC50,second compound 0.316 µM,< 5.00
same,pIC50,second compound 1 µM,< 5.00
same,pIC50,second compound 3.16 µM,< 5.00
same,pIC50,second compound 10 µM,< 5.00
same,"viability, T/C",[1],101%
same,"viability, T/C",[2],95.9%
same,"viability, T/C",[3],98.2%
same,"viability, T/C",[4],111%
same,"viability, T/C","second compound 0.0316 µM, first compound 3.16 µM",100%
same,"viability, T/C","second compound 0.0316 µM, first compound 10 µM",62.8%
same,"viability, T/C",[5],89.5%
same,"viability, T/C",[6],102%
same,"viability, T/C",[7],95.2%
same,"viability, T/C",[8],103%
same,"viability, T/C","second compound 0.1 µM, first compound 3.16 µM",102%
same,"viability, T/C","second compound 0.1 µM, first compound 10 µM",59.4%
same,"viability, T/C",[9],116%
same,"viability, T/C",[10],108%
same,"viability, T/C",[11],114%
same,"viability, T/C",[12],101%
same,"viability, T/C","second compound 0.316 µM, first compound 3.16 µM",110%
same,"viability, T/C","second compound 0.316 µM, first compound 10 µM",68.8%
same,"viability, T/C",[13],108%
same,"viability, T/C",[14],103%
same,"viability, T/C",[15],104%
same,"viability, T/C",[16],102%
same,"viability, T/C","second compound 1 µM, first compound 3.16 µM",102%
same,"viability, T/C","second compound 1 µM, first compound 10 µM",64.7%
same,"viability, T/C",[17],104%
same,"viability, T/C",[18],103%
same,"viability, T/C",[19],103%
same,"viability, T/C",[20],107%
same,"viability, T/C","second compound 3.16 µM, first compound 3.16 µM",112%
same,"viability, T/C","second compound 3.16 µM, first compound 10 µM",67.9%
same,"viability, T/C",[21],110%
same,"viability, T/C",[22],122%
same,"viability, T/C",[23],114%
same,"viability, T/C",[24],103%
same,"viability, T/C","second compound 10 µM, first compound 3.16 µM",109%
same,"viability, T/C","second compound 10 µM, first compound 10 µM",59.3%
COc1cccc(OCCCN)c1-c1cc(Nc2cnc(C#N)cn2)n[nH]1 + Nc1ccc(C#CCN(C(=O)Cc2ncc(C(F)(F)F)cc2C(F)(F)F)c2ccc(F)cc2)nn1,pIC50,second compound 0.0316 µM,< 6.00
same,pIC50,second compound 0.1 µM,< 6.00
same,pIC50,second compound 0.316 µM,< 6.00
same,pIC50,second compound 1 µM,< 6.00
same,pIC50,second compound 3.16 µM,< 6.00
same,pIC50,second compound 10 µM,< 6.00
same,"viability, T/C","second compound 0.0316 µM, first compound 0.00316 µM",90.3%
same,"viability, T/C","second compound 0.0316 µM, first compound 0.01 µM",101%
same,"viability, T/C",[1],72.8%
same,"viability, T/C",[2],64.2%
same,"viability, T/C",[3],62.4%
same,"viability, T/C",[4],65%
same,"viability, T/C","second compound 0.1 µM, first compound 0.00316 µM",92.2%
same,"viability, T/C","second compound 0.1 µM, first compound 0.01 µM",101%
same,"viability, T/C",[5],73.4%
same,"viability, T/C",[6],59.3%
same,"viability, T/C",[7],65.8%
same,"viability, T/C",[8],56.1%
same,"viability, T/C","second compound 0.316 µM, first compound 0.00316 µM",99.3%
same,"viability, T/C","second compound 0.316 µM, first compound 0.01 µM",93.8%
same,"viability, T/C",[9],74.8%
same,"viability, T/C",[10],68.6%
same,"viability, T/C",[11],60.8%
same,"viability, T/C",[12],59.9%
same,"viability, T/C","second compound 1 µM, first compound 0.00316 µM",111%
same,"viability, T/C","second compound 1 µM, first compound 0.01 µM",100%
same,"viability, T/C",[13],79.6%
same,"viability, T/C",[14],69%
same,"viability, T/C",[15],62.2%
same,"viability, T/C",[16],55.8%
same,"viability, T/C","second compound 3.16 µM, first compound 0.00316 µM",109%
same,"viability, T/C","second compound 3.16 µM, first compound 0.01 µM",94.4%
same,"viability, T/C",[17],70.1%
same,"viability, T/C",[18],60.6%
same,"viability, T/C",[19],66.1%
same,"viability, T/C",[20],65%
same,"viability, T/C","second compound 10 µM, first compound 0.00316 µM",121%
same,"viability, T/C","second compound 10 µM, first compound 0.01 µM",92.3%
same,"viability, T/C",[21],71.8%
same,"viability, T/C",[22],64.7%
same,"viability, T/C",[23],66.3%
same,"viability, T/C",[24],60.5%

# From PubChem BioAssay AID1963835 (Molecular Pharmacology Branch, DTP, NCI, 2024)
